Measured values from ChEMBL document CHEMBL5226340, “Chemical Biology of Sortase A Inhibition: A Gateway to Anti-infective Therapeutic Agents” (J Med Chem, 2021).
Converted amounts (≈) assume the structure as drawn. Counter-ions that a name gives are not always drawn. Each block holds one molecule with its values, some of them ahead of it. Starred links: 1 amine or outer side, 2 acyl side, 3 side chain; linkers in the order of their positions; H or OH if unused. Non-standard residues stand in square brackets, D forms with d. Residues, ends and D or L forms follow the SMILES beside them. *: point of attachment. X1 = C[C@@H](N[*:1])P(=O)(O)CCC(=O)[*:2]; Cbz = O=C(OCc1ccccc1)*; CH2Cl = ClC*

Experiments:
Sortase A [1] = target: T1, Sortase A (Staphylococcus aureus, UniProt Q9S446); assay: Inhibition of Staphylococcus aureus SrtA expressed in Escherichia coli by fluorescence based analysis
T1 sequence (Q9S446 whole entry): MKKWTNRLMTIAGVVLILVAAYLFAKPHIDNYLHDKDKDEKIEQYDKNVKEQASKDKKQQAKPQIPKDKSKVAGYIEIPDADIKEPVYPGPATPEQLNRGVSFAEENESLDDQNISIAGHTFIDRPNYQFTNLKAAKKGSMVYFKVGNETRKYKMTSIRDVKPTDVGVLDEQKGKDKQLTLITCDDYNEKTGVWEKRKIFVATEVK

Sortase A [2] = target: T1, Sortase A; assay: Inhibition of Staphylococcus aureus SrtA catalytic domain (60 to 206 residues) using Abz-LPETGDap(Dnp)-NH2 as substrate preincubated for 1 hr followed by substrate addition and measured immediately by FRET assay
[3] = target: T2, Sortase A (Staphylococcus aureus) (UniProt Q9S446); assay: Binding affinity to Staphylococcus aureus SrtA assessed as kinact/ki
T2 sequence (whole entry): T1 sequence (Q9S446 whole entry)

Sortase A [4] = target: T1, Sortase A; assay: Inhibition of Staphylococcus aureus SrtA using EDANS-Dabcyl as substrate by FRET assay
Staphylococcus aureus [5] = assay: Antibacterial activity against Staphylococcus aureus; assay type: functional
Sortase A [6] = target: T1, Sortase A; assay: Inhibition of Staphylococcus aureus SrtA with 24 residues truncated from N-terminus using Abz-LPATG-Dap as substrate
Sortase A [7] = target: T1, Sortase A; assay: Inhibition of recombinant Staphylococcus aureus SrtA using DabcylQALPETGEE-Edans as substrate by FRET assay
[8] = target: T2, Sortase A (Staphylococcus aureus); assay: Binding affinity to wild type recombinant Staphylococcus aureus SrtA using Dabcyl-Gln-Ala-Leu-Pro-Glu-Thr-Gly-Glu-Glu-Edans as substrate assessed as first order rate constant of inactivation by FRET assay
[9] = target: T2, Sortase A (Staphylococcus aureus); assay: Binding affinity to wild type recombinant Staphylococcus aureus SrtA using Dabcyl-Gln-Ala-Leu-Pro-Glu-Thr-Gly-Glu-Glu-Edans as substrate assessed as second order rate constant of inhibition, kinact/Ki by FRET assay
Sortase A [10] = target: T1, Sortase A; assay: Binding affinity to wild type recombinant Staphylococcus aureus SrtA using Dabcyl-Gln-Ala-Leu-Pro-Glu-Thr-Gly-Glu-Glu-Edans as substrate by FRET assay
Sortase A [11] = target: T1, Sortase A; assay: Inhibition of C-terminal 6His-tagged recombinant Staphylococcus aureus SrtA with 1 to 59 residues truncated from N-terminus expressed in Escherichia coli BL21 (DE3) using dabcyl-QALPETGEE-edans as substrate preincubated for 1 hr followed by substrate addition and measured for 1 hr by FRET assay
Staphylococcus aureus [12] = assay: Antibacterial activity against Staphylococcus aureus SA113 by microbroth dilution assay; assay type: functional
Sortase A [13] = target: T1, Sortase A; assay: Inhibition of recombinant Staphylococcus aureus ATCC 6538p SrtA expressed in Escherichia coli TOP10 using Dabcyl-QALPETGEE-Edans as substrate incubated for 1 hr by fluorometric analysis
Staphylococcus aureus [14] = assay: Antibacterial activity against Staphylococcus aureus ATCC 6538p assessed as inhibition of bacterial growth incubated overnight by spectrophotometer; assay type: functional
Sortase A [15] = target: T1, Sortase A; assay: Inhibition of Staphylococcus aureus SrtA (60 to 206 residues) using Abz-LPETG-Dap(Dnp)-NH2 as substrate incubated for 1 hr by FRET assay
Staphylococcus aureus [16] = assay: Inhibition of biofilm formation in Staphylococcus aureus ATCC 29213 incubated for 24 hrs by crystal violet staining based analysis; assay type: functional, organism-based; settings: ATCC 29213, 24 h
[17] = target: T2, Sortase A (Staphylococcus aureus); assay: Inhibition of Staphylococcus aureus SrtA expressed in Escherichia coli BL21 (DE3) cells using Abz-LPETG-Dap(Dnp) as substrate assessed as kinact/ki
Sortase A [18] = target: T1, Sortase A; assay: Inhibition of recombinant Staphylococcus aureus SrtA using Abz-LPETG-Dap(Dnp) as substrate

IC50 (Sortase A [1]): 198 µM
SMILES: Cc1cc2nc3[nH]c(=O)[nH]c(=O)c3nc2cc1C [LUMICHROME]

SMILES: CCOc1c(SSc2cnn(-c3cccc(C(=N)N)c3)c(=O)c2OCC)cnn(-c2cccc(C(=N)N)c2)c1=O
IC50 (Sortase A [2]): 0.54 µM
Ratio [3]: 3.6 10^4/M/min

SMILES: O=C(/C=C/c1ccc(O)cc1)CC(=O)/C=C/c1ccc(O)cc1 [BISDEMETHOXYCURCUMIN]
IC50 (Sortase A [4]): 103 µM
MIC (Staphylococcus aureus [5]): > 543 µM

SMILES: Clc1ccccc1-c1nn2c(-c3ccncc3)nnc2s1
IC50 (Sortase A [6]): 37.7 µM

SMILES: COc1ccc2cc3[n+](cc2c1OC)CCc1cc2c(cc1-3)OCO2 [BERBERINE SULFATE]
IC50 (Sortase A [7]): 26.5 µM

SMILES: COc1ccc2c(c1OC)C(=O)O[C@@H]2[C@H]1c2cc3c(cc2CCN1C)OCO3 [HYDRASTINE]
IC50 (Sortase A [7]): > 209 µM

SMILES: CC(C)C[C@H](NC(=O)OCc1ccccc1)C(=O)N1CCC[C@H]1C(=O)N[C@@H](C)C(=O)N[C@H](C(=O)CCl)[C@@H](C)O (Cbz-LPAT-CH2Cl)
Kinact [8]: 1.1 10^-2/min
Ratio [9]: 5.3 10^4/M/min
kinact/Ki [9]: 883 M⁻¹ s⁻¹
Ki (Sortase A [10]): 0.2 µM

SMILES: CC(=O)/C(=N/Nc1ccc(Cl)c(Cl)c1)C(=O)O
MIC (Staphylococcus aureus [5]): > 270 µM
IC50 (Sortase A [11]): 50 µM

Ratio [3]: 7.24 10^4/M/min
SMILES: CCSSc1ccccc1C(=O)NCC(=O)Nc1cccc(Oc2ccccc2)c1

Ratio [3]: 5.93 10^4/M/min
MIC (Staphylococcus aureus [12]): 16 µM (≈ 6.25 µg/mL)
SMILES: CSSc1ccccc1C(=O)NCC(=O)NC12CC3CC(CC(C3)C1)C2

SMILES: COc1ccc(-c2coc3cc(O)ccc3c2=O)cc1 [FORMONONETIN]
IC50 (Sortase A [13]): 74.9 µM
MIC (Staphylococcus aureus [14]): > 478 µM

MIC (Staphylococcus aureus [5]): > 1550 µM
Ratio [3]: 0.7 10^3/M/min
SMILES: O=c1cc(CO)oc(C(Nc2ccccn2)c2ccsc2)c1O (centres undefined)

Ratio [3]: 7.13 10^4/M/min
SMILES: CCSSc1ccccc1C(=O)NCC(=O)NCC1CCCCC1

SMILES: COc1cc2c(cc1O)OC(c1ccccc1)CC2=O (centres undefined)
IC50 (Sortase A [13]): 96.1 µM
MIC (Staphylococcus aureus [14]): > 4700 µM

Ratio [3]: 6.39 10^4/M/min
SMILES: CCSSc1ccccc1C(=O)NCC(=O)N(C1CCCCC1)C1CCCCC1

SMILES: O=S(=O)(O)c1cccc(-c2nn3c(-c4ccncc4)nnc3s2)c1
IC50 (Sortase A [6]): 9.3 µM

Ratio [3]: 5.75 10^4/M/min
MIC (Staphylococcus aureus [12]): 116 µM (≈ 50 µg/mL)
SMILES: CSSc1ccccc1C(=O)N1CCC[C@H]1C(=O)NC12CC3CC(CC(C3)C1)C2

SMILES: O=c1c(O)c(-c2ccc(O)c(O)c2)oc2cc(O)cc(O)c12 [QUERCETIN]
IC50 (Sortase A [13]): 52.7 µM

Ratio [3]: 6.14 10^4/M/min
SMILES: CCSSc1ccccc1C(=O)NCC(=O)Nc1ccc(F)cc1

MIC (Staphylococcus aureus [5]): > 1580 µM
Ratio [3]: 1.4 10^3/M/min
SMILES: O=c1cc(CO)oc(C(Nc2ccccn2)c2ccc(F)cc2)c1O (centres undefined)

MIC (Staphylococcus aureus [5]): > 543 µM
SMILES: COc1cc(/C=C/C(=O)CC(=O)/C=C/c2ccc(O)c(OC)c2)ccc1O [CURCUMIN]

SMILES: Clc1ccc(C2Nc3cccc4cccc(c34)N2)cc1
IC50 (Sortase A [15]): 89 µM

MIC (Staphylococcus aureus [5]): > 1300 µM
Ratio [3]: 1.7 10^3/M/min
SMILES: O=c1cc(CO)oc(C(Nc2ccccn2)c2ccc(C(F)(F)F)cc2)c1O (centres undefined)

Ratio [3]: 8.21 10^4/M/min
SMILES: CCSSc1ccccc1C(=O)N[C@H](CC(=O)O)C(=O)Nc1cccc(Oc2ccccc2)c1

SMILES: CCOC(=O)/C(=N\Nc1ccc(Cl)c(Cl)c1)C(=O)c1cc(C)nn1CC
IC50 (Sortase A [11]): > 200 µM
IC50 (Staphylococcus aureus [16]): 1.7 µM

SMILES: C[C@@H]1O[C@@H](OC2=C(c3ccc(O)c(O)c3)Oc3cc(O)cc(O)c3[C@@H]2O)[C@H](O)[C@H](O)[C@H]1O
IC50 (Sortase A [4]): 71.8 µM

Ratio [17]: 20.1 M⁻¹ min⁻¹
SMILES: C=CS(=O)(=O)c1ccccc1

SMILES: COc1cc(/C=C/C(=O)CC(=O)/C=C/c2ccc(O)cc2)ccc1O
IC50 (Sortase A [4]): 70.3 µM
MIC (Staphylococcus aureus [5]): > 543 µM

SMILES: CC(C)C[C@H](NC(=O)[C@H](C)NC(=O)[C@@H](N)Cc1ccc(O)cc1)C(=O)N1CCC[C@H]1C(=O)N[C@@H](CCC(=O)O)C(=O)N[C@H](C)P(=O)(O)CCC(=O)N[C@@H](CCC(=O)O)C(=O)N[C@@H](CCC(=O)O)C(N)=O (H-YALPE[X1]EE-NH2)
IC50 (Sortase A [18]): 10000 µM
